Drawing on the kinase profiling compilation of Christmann-Franck et al. (2016), this text covers kinase still bound, per cent of control for 1 compound.

Targets include TGFBR1 (human) (UniProt P36897); DCLK1 (human) (UniProt O15075); CSNK1D (human) (UniProt P48730); STK39 (human) (UniProt Q9UEW8); STK17A (human) (UniProt Q9UEE5); MAPK10 (human) (UniProt P53779); SYK (human) (UniProt P43405); PRKACA (human) (UniProt P17612); WNK1 (human) (UniProt Q9H4A3).
Holding throughout (experiment): KINOMEscan competition binding
Common to all, as to conditions: compound 10.0 µM

Sequence of WNK1 (human) (Q9H4A3 whole entry, looked up): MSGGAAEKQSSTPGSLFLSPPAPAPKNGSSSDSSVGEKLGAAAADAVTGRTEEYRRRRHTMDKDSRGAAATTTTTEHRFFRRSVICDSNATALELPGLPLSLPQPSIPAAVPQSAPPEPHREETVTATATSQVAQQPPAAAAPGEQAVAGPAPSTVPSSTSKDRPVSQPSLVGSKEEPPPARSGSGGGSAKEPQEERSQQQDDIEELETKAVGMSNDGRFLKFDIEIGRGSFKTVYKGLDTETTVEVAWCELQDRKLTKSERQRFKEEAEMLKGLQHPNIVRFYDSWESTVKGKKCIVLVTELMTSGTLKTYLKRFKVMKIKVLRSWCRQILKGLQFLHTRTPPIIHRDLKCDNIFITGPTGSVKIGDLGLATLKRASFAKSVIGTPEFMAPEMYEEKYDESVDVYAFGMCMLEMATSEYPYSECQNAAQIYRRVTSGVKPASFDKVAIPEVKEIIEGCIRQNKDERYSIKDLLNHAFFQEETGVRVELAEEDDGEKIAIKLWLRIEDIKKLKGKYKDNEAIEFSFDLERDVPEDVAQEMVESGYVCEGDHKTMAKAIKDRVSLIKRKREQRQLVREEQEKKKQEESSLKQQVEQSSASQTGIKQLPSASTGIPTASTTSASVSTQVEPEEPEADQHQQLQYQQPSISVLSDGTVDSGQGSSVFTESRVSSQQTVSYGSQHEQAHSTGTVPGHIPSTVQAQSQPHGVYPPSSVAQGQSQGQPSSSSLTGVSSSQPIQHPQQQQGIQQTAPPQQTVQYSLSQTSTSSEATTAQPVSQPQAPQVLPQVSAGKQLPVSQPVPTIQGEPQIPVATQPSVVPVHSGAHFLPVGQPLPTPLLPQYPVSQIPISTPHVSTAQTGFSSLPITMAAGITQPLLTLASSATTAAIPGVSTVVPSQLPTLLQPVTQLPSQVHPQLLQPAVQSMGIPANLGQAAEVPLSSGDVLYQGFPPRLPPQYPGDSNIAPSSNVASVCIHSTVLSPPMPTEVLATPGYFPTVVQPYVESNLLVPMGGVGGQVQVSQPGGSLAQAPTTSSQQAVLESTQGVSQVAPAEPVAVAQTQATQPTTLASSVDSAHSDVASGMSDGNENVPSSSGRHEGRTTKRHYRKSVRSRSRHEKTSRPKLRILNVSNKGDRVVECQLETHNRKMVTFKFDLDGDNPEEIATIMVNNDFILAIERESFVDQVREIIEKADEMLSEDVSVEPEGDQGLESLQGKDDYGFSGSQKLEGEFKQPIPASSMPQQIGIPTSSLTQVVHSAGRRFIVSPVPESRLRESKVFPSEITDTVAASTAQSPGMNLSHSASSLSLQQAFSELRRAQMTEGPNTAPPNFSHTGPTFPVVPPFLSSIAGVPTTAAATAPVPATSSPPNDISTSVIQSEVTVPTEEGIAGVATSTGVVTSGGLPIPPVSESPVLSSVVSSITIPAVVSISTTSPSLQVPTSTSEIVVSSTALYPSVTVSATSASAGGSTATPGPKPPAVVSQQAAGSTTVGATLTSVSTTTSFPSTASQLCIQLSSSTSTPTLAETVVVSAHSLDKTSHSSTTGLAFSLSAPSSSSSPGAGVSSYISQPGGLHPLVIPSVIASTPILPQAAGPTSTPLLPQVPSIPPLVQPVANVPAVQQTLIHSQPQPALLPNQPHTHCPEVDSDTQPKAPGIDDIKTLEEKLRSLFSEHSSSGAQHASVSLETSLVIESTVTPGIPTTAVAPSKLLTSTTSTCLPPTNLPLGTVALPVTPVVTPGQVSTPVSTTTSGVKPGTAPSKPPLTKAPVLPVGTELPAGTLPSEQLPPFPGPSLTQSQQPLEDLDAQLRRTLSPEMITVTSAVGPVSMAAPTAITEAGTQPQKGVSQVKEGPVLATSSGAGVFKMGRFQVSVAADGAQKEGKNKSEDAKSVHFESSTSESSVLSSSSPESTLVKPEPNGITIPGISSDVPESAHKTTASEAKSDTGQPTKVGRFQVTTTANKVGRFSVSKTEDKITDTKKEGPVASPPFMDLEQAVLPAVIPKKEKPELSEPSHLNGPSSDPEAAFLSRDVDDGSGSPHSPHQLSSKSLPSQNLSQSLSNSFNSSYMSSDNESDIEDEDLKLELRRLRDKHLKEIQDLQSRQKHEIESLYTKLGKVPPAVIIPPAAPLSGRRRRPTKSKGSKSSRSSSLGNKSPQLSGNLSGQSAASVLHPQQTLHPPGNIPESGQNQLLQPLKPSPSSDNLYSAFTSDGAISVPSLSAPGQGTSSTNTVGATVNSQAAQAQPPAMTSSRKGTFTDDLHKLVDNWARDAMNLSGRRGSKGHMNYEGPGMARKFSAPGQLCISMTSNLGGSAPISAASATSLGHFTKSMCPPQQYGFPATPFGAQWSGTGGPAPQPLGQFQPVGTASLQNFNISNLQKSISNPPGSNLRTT
Sequence of DCLK1 (human) (O15075 whole entry, looked up): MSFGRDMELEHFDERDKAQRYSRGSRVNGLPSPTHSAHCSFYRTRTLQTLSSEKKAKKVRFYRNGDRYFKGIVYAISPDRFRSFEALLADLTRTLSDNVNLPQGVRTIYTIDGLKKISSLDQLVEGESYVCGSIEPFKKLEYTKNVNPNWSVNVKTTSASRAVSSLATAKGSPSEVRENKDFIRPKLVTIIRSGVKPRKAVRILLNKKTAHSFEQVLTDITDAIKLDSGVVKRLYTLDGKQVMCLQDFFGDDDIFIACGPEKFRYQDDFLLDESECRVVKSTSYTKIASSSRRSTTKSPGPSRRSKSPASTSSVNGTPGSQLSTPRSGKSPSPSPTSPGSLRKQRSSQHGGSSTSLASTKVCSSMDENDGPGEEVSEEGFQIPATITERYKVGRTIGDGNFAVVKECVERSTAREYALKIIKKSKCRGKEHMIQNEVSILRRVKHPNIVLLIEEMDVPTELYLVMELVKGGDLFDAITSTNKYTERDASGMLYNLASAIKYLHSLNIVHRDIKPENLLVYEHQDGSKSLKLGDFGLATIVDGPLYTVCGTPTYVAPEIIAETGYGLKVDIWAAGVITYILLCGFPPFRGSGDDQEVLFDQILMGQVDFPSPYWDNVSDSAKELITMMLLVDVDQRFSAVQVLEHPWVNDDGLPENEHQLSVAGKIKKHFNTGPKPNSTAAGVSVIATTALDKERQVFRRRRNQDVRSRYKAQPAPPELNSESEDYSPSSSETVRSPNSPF
Sequence of TGFBR1 (human) (P36897 whole entry, looked up): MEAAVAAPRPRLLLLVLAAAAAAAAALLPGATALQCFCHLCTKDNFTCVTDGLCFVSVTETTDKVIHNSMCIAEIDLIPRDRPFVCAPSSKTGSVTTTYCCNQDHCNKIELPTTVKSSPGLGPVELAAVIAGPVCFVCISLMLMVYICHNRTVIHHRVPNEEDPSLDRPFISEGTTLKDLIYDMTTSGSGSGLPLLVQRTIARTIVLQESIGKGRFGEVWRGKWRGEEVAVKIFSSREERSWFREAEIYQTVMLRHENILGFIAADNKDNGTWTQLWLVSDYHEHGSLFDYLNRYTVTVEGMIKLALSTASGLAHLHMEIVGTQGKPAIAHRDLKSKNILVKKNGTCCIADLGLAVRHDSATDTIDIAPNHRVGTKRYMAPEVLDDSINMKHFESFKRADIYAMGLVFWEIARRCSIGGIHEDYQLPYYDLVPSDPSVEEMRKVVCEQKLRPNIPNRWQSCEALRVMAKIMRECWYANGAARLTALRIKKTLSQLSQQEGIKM
Sequence of CSNK1D (human) (P48730 whole entry, looked up): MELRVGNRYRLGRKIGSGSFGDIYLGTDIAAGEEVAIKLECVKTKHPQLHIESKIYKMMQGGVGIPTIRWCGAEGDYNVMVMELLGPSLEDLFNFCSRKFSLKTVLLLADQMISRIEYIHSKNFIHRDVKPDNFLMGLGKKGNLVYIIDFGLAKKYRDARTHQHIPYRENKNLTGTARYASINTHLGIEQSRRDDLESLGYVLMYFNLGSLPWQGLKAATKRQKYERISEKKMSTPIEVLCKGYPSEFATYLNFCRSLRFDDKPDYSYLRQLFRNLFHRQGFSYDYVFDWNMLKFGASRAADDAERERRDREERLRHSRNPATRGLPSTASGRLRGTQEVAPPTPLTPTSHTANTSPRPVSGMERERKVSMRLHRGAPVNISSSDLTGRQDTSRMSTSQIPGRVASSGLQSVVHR
Sequence of STK17A (human) (Q9UEE5 whole entry, looked up): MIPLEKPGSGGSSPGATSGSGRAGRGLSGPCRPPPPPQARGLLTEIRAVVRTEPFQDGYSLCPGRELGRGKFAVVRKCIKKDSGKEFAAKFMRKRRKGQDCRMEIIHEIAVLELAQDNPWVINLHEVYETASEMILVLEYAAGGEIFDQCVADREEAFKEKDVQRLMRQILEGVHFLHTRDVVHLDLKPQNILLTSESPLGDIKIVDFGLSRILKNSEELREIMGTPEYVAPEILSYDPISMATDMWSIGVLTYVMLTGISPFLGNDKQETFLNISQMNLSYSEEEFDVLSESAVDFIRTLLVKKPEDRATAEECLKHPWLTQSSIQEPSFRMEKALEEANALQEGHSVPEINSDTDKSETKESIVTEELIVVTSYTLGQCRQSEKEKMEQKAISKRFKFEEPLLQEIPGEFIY
Sequence of MAPK10 (human) (P53779 whole entry, looked up): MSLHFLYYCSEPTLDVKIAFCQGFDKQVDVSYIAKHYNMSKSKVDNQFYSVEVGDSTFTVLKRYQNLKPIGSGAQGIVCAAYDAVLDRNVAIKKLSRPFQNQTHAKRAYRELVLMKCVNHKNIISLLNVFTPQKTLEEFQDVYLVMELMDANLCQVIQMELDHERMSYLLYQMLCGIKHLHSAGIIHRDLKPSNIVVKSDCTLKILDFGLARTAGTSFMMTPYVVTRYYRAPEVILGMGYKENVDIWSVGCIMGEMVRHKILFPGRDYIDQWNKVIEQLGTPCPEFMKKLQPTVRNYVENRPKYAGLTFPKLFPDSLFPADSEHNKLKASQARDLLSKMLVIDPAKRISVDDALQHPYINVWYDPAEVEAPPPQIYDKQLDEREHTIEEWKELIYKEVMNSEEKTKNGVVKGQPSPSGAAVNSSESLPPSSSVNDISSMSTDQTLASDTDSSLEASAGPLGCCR

On to `O=C(Nc1ccc(Oc2ncnc3[nH]ncc23)cc1)Nc1ccc(Cl)c(C(F)(F)F)c1`, for which the kinase still bound, per cent of control was 93% on TGFBR1 (human); 82% on DCLK1 (human); 88% at CSNK1D (human); 72% on STK39 (human); 62% at STK17A (human); 74% at MAPK10 (human). For the same compound, the kinase still bound, per cent of control is 56% on SYK (human), 69% on PRKACA (human) and 100% on WNK1 (human).
